Experimental data taken from PubChem BioAssay AID248 (DTP/NCI, 2004).
“And” between values parts separate entries of the source, which are not always exact repeats. Equal entries are not always repeated. Toxic doses and inconclusive results are not listed. Cut-off read from the data, not from the text of the source: active = T/C of 150% or more; inactive = T/C below 125%.

Tested on: L1210 leukemia ip in BDF1 mice, survival T/C
Assay: NCI In Vivo Anticancer Drug Screen. Data for tumor model L1210 Leukemia (intraperitoneal) in B6D2F1 (BDF1) mice
Settings: endpoint: mean survival time, higher = longer survival
How it was run: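 Antitumor effect is assessed in tumor-bearing animals. Survival in the compound arm is compared with a vehicle-dosed control arm and expressed as their quotient.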

[1] = dose: 100.0 mg/kg/injection, schedule: Q04DX003 (ip), vehicle: saline with Tween-80
[2] = dose: 200.0 mg/kg/injection, schedule: Q04DX003 (ip), vehicle: saline with Tween-80
[3] = dose: 400.0 mg/kg/injection, schedule: Q04DX003 (ip), vehicle: saline with Tween-80
[4] = dose: 100.0 mg/kg/injection, schedule: Q04DX003 (ip), vehicle: saline
[5] = dose: 200.0 mg/kg/injection, schedule: Q04DX003 (ip), vehicle: saline
[6] = dose: 400.0 mg/kg/injection, schedule: Q04DX003 (ip), vehicle: saline
[7] = dose: 100.0 mg/kg/injection, schedule: Q01DX001 (ip), vehicle: saline
[8] = dose: 200.0 mg/kg/injection, schedule: Q01DX001 (ip), vehicle: saline
[9] = dose: 100.0 mg/kg/injection, schedule: Q01DX009 (ip), vehicle: Klucel (hydroxypropylcellulose) (HPC)
[10] = dose: 200.0 mg/kg/injection, schedule: Q01DX009 (ip), vehicle: Klucel (hydroxypropylcellulose) (HPC)
[11] = dose: 400.0 mg/kg/injection, schedule: Q01DX009 (ip), vehicle: Klucel (hydroxypropylcellulose) (HPC)

Measured: T/C

Nc1nc2c(c(=O)[nH]1)N(Cc1ccccc1)C(CNc1ccc(C(=O)NC(CCC(=O)O)C(=O)O)cc1)CN2 (centres undefined)
inactive: dose: 100.0 mg/kg/injection, schedule: Q01DX001 (ip), vehicle: alkali diluted with saline 91 % of control | dose: 200.0 mg/kg/injection, schedule: Q01DX001 (ip), vehicle: alkali diluted with saline 94 % of control | dose: 400.0 mg/kg/injection, schedule: Q01DX001 (ip), vehicle: alkali diluted with saline 100 % of control

CS(=O)(=O)OCC(O)C(O)COS(C)(=O)=O (centres undefined)
inactive: dose: 50.0 mg/kg/injection, schedule: Q01DX010 (ip), vehicle: saline 93 % of control and 91 % of control | dose: 100.0 mg/kg/injection, schedule: Q01DX010 (ip), vehicle: saline 96 % of control | dose: 125.0 mg/kg/injection, schedule: Q01DX Z (ip), vehicle: carboxymethylcellulose (CMC) 103 % of control | dose: 200.0 mg/kg/injection, schedule: Q01DX010 (ip), vehicle: saline 102 % of control and 108 % of control | dose: 250.0 mg/kg/injection, schedule: Q01DX Z (ip), vehicle: carboxymethylcellulose (CMC) 112 % of control | dose: 400.0 mg/kg/injection, schedule: Q01DX010 (ip), vehicle: saline 117 % of control | dose: 440.0 mg/kg/injection, schedule: Q01DX001 (ip), vehicle: carboxymethylcellulose (CMC) 101 % of control and 107 % of control | dose: 500.0 mg/kg/injection, schedule: Q01DX Z (ip), vehicle: carboxymethylcellulose (CMC) 123 % of control | dose: 670.0 mg/kg/injection, schedule: Q01DX001 (ip), vehicle: carboxymethylcellulose (CMC) 101 % of control and 107 % of control | dose: 1000.0 mg/kg/injection, schedule: Q01DX001 (ip), vehicle: carboxymethylcellulose (CMC) 103 % of control and 110 % of control

O=C1C(Cl)=C(Cl)C(=O)N1c1ccc(Cl)c(Cl)c1
inactive: dose: 100.0 mg/kg/injection, schedule: Q01DX009 (ip), vehicle: saline with Tween-80 98 % of control | [1] 91 % of control | dose: 200.0 mg/kg/injection, schedule: Q01DX009 (ip), vehicle: saline with Tween-80 101 % of control | [2] 87 % of control | [3] 94 % of control

O=C1OC(c2ccccc2)CC1NCc1ccccc1 (centres undefined)
inactive: dose: 100.0 mg/kg/injection, schedule: Q01DX001 (ip), vehicle: Klucel (hydroxypropylcellulose) (HPC) 98 % of control | dose: 200.0 mg/kg/injection, schedule: Q01DX001 (ip), vehicle: Klucel (hydroxypropylcellulose) (HPC) 101 % of control | dose: 400.0 mg/kg/injection, schedule: Q01DX001 (ip), vehicle: Klucel (hydroxypropylcellulose) (HPC) 96 % of control

CCC(C)C(CC(=O)O)C(=O)O (centres undefined)
inactive: [4] 97 % of control | [5] 94 % of control | [6] 92 % of control

O=C(CCN1CC1)N1CCOCC1
inactive: [4] 108 % of control | [5] 100 % of control | [6] 113 % of control

Nc1ccccc1C(O)c1ccccc1 (centres undefined)
inactive: [7] 104 % of control | [8] 106 % of control

FC(F)(F)c1ccc2c(c1)N(CCCCl)c1ccccc1S2
inactive: dose: 50.0 mg/kg/injection, schedule: Q04DX003 (ip), vehicle: Klucel (hydroxypropylcellulose) (HPC) 103 % of control | dose: 100.0 mg/kg/injection, schedule: Q04DX003 (ip), vehicle: Klucel (hydroxypropylcellulose) (HPC) 118 % of control | dose: 200.0 mg/kg/injection, schedule: Q04DX003 (ip), vehicle: Klucel (hydroxypropylcellulose) (HPC) 105 % of control | dose: 400.0 mg/kg/injection, schedule: Q04DX003 (ip), vehicle: Klucel (hydroxypropylcellulose) (HPC) 115 % of control

COc1cc(O)c(OC(C)=O)cc1OC
inactive: dose: 100.0 mg/kg/injection, schedule: Q01DX001 (ip), vehicle: gum acacia 97 % of control | dose: 200.0 mg/kg/injection, schedule: Q01DX001 (ip), vehicle: gum acacia 97 % of control | dose: 400.0 mg/kg/injection, schedule: Q01DX001 (ip), vehicle: gum acacia 117 % of control

COc1ccccc1NC1=C(NC(=O)Cc2ccccc2)C(=O)c2ccccc2C1=O
inactive: [1] 98 % of control | [2] 96 % of control | [3] 94 % of control

O=C(O)CCC(=O)CC1CCCCC1
inactive: [1] 101 % of control | [2] 87 % of control

COC(=O)NC1CC2C=CC1C1C=CC21 (centres undefined)
inactive: [1] 92 % of control | [2] 91 % of control | [3] 100 % of control

Cc1ccc2cccc3c2c1S(=O)(=O)c1cccc2cccc(c12)C3
inactive: [7] 98 % of control | [8] 104 % of control | dose: 400.0 mg/kg/injection, schedule: Q01DX001 (ip), vehicle: saline 93 % of control

COc1ccc(C)c(CN(C)C)c1
inactive: dose: 50.0 mg/kg/injection, schedule: Q01DX001 (ip), vehicle: saline 107 % of control | [7] 101 % of control

COC(=O)C[As+](c1ccccc1)(c1ccccc1)c1ccccc1
inactive: dose: 38.0 mg/kg/injection, schedule: Q04DX003 (ip), vehicle: saline 91 % of control | dose: 75.0 mg/kg/injection, schedule: Q04DX003 (ip), vehicle: saline 100 % of control | dose: 150.0 mg/kg/injection, schedule: Q04DX003 (ip), vehicle: saline 96 % of control

O/N=C/c1ccc(Cc2ccccc2)o1
inactive: dose: 75.0 mg/kg/injection, schedule: Q01DX001 (ip), vehicle: carboxymethylcellulose (CMC) 97 % of control | dose: 150.0 mg/kg/injection, schedule: Q01DX001 (ip), vehicle: carboxymethylcellulose (CMC) 100 % of control | dose: 300.0 mg/kg/injection, schedule: Q01DX001 (ip), vehicle: carboxymethylcellulose (CMC) 96 % of control

CC(C)OC(=S)S
inactive: dose: 25.0 mg/kg/injection, schedule: Q01DX009 (ip), vehicle: saline 100 % of control | dose: 50.0 mg/kg/injection, schedule: Q01DX009 (ip), vehicle: saline 94 % of control | dose: 100.0 mg/kg/injection, schedule: Q01DX009 (ip), vehicle: saline 93 % of control

CCCCOP(=O)(NNC=O)OCCCC
inactive: [4] 96 % of control | [5] 98 % of control | [6] 95 % of control

N=C(N)COc1ccccc1
inactive: dose: 100.0 mg/kg/injection, schedule: Q01DX001 (ip), vehicle: saline sonified 101 % of control | dose: 200.0 mg/kg/injection, schedule: Q01DX001 (ip), vehicle: saline sonified 97 % of control | dose: 400.0 mg/kg/injection, schedule: Q01DX001 (ip), vehicle: saline sonified 95 % of control

CC1(Br)C(=O)C(O)=C(Br)C1=O (centres undefined)
inactive: dose: 75.0 mg/kg/injection, schedule: Q01DX001 (ip), vehicle: saline 104 % of control | dose: 150.0 mg/kg/injection, schedule: Q01DX001 (ip), vehicle: saline 106 % of control

COc1ccc(OC)c(NC(=O)Nc2ccc(F)cc2)c1
inactive: dose: 12.5 mg/kg/injection, schedule: Q01DX001 (ip), vehicle: carboxymethylcellulose (CMC) 98 % of control | dose: 12.5 mg/kg/injection, schedule: Q01DX009 (ip), vehicle: carboxymethylcellulose (CMC) 92 % of control and 94 % of control | dose: 12.5 mg/kg/injection, schedule: Q04DX002 (ip), vehicle: carboxymethylcellulose (CMC) 110 % of control | dose: 12.5 mg/kg/injection, schedule: Q04DX003 (ip), vehicle: carboxymethylcellulose (CMC) 95 % of control | dose: 25.0 mg/kg/injection, schedule: Q01DX001 (ip), vehicle: carboxymethylcellulose (CMC) 103 % of control | dose: 25.0 mg/kg/injection, schedule: Q01DX009 (ip), vehicle: carboxymethylcellulose (CMC) 95 % of control and 99 % of control | dose: 25.0 mg/kg/injection, schedule: Q04DX002 (ip), vehicle: carboxymethylcellulose (CMC) 98 % of control and 100 % of control | dose: 25.0 mg/kg/injection, schedule: Q04DX003 (ip), vehicle: carboxymethylcellulose (CMC) 91 % of control | dose: 50.0 mg/kg/injection, schedule: Q01DX001 (ip), vehicle: carboxymethylcellulose (CMC) 95 % of control | dose: 50.0 mg/kg/injection, schedule: Q01DX009 (ip), vehicle: carboxymethylcellulose (CMC) 92 % of control and 89 % of control | dose: 50.0 mg/kg/injection, schedule: Q04DX002 (ip), vehicle: carboxymethylcellulose (CMC) 97 % of control | dose: 50.0 mg/kg/injection, schedule: Q04DX003 (ip), vehicle: carboxymethylcellulose (CMC) 93 % of control

COc1ccc2nc(NC3=NCCO3)sc2c1
inactive: [9] 98 % of control | [10] 94 % of control | [11] 93 % of control

O=C(Nc1ccccc1)OCC#CCOC(=O)Nc1ccccc1
inactive: [9] 97 % of control | [10] 90 % of control | [11] 100 % of control
